Reference: ChEMBL document CHEMBL1759869, “Discovery of spirocyclic sulfonamides as potent Akt inhibitors with exquisite selectivity against PKA” (Bioorg Med Chem Lett, 2011)
pIC50: −log10 of the molar value.

Columns and labels:
[1] = Selectivity ratio of IC50 for PKA to IC50 for Akt1
[2] = Inhibition of PKA
[3] = target: T1, RAC-alpha serine/threonine-protein kinase (Homo sapiens, UniProt P31749); test: Inhibition of AKT1-mediated PRAS40 phosphorylation in human LNCaP cells; assay type: cell-based
T1 sequence (P31749 whole entry): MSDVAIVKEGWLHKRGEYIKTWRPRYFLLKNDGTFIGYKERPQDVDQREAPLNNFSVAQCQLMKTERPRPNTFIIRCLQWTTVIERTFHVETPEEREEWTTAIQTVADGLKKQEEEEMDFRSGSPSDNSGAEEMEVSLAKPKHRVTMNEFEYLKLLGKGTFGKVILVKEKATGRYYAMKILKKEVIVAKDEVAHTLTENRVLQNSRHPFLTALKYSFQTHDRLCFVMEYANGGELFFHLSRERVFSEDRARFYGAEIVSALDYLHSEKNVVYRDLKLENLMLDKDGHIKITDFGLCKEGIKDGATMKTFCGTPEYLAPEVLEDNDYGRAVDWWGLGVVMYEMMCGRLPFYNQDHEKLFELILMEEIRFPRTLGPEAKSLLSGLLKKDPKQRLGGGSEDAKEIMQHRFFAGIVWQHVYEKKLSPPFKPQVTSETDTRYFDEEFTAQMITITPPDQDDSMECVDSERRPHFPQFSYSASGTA

[4] = target: T1, RAC-alpha serine/threonine-protein kinase; test: Inhibition of Akt1

Structure (SMILES)	Ratio IC50 [1]	pIC50 [2]	pIC50 [3]	pIC50 [4]
CCOCCN(C[C@@H](O)CN1CCCC2(CCN(c3ncnc4[nH]nc(C)c34)C2)C1)S(=O)(=O)c1c(C)cccc1C (some centres undefined)	27	6.25	–	–
CCOCCN(C[C@@H](O)CN1CCCC2(CCN(c3ncnc4n[nH]c(C)c34)C2)C1)S(=O)(=O)c1c(C)cccc1C (some centres undefined)	–	–	6.51	7.68
Cc1cccc(C)c1S(=O)(=O)N1CCC[C@H]1[C@H](O)CN1CCC[C@@]2(CCN(c3ncnc(N)c3C3CC3)C2)C1	> 40	< 5.00	4.89	6.60
Cc1ccccc1S(=O)(=O)NC[C@@H](O)CN1CCC[C@@]2(CCN(c3ncnc(N)c3C3CC3)C2)C1	560	5.30	5.92	8.05
CCOCCN(C[C@@H](O)CN1CCCC2(CCN(c3ncnc4[nH]cc(C)c34)CC2)C1)S(=O)(=O)c1c(C)cccc1C	5	6.68	5.92	7.39
CCOCCN(C[C@@H](O)CN1CCCC2(CCN(c3ncncc3C3CC3)C2)C1)S(=O)(=O)c1c(C)cccc1C (some centres undefined)	280	5.47	6.13	7.92
Cc1cccc(C)c1S(=O)(=O)N1CCC[C@H]1[C@@H](O)CN1CCC[C@@]2(CCN(c3ncnc(N)c3C3CC3)C2)C1	430	5.41	6.16	8.05
CCOCCN(C[C@@H](O)CN1CCCC2(CCN(c3ncnc4ccccc34)C2)C1)S(=O)(=O)c1c(C)cccc1C (some centres undefined)	–	5.33	5.62	–
Cc1ccncc1S(=O)(=O)NC[C@@H](O)CN1CCC[C@@]2(CCN(c3ncnc(N)c3C3CC3)C2)C1	> 9	< 5.00	–	5.96
Cc1cccc(C)c1S(=O)(=O)N1CCC[C@@H]1[C@@H](O)CN1CCC[C@@]2(CCN(c3ncnc(N)c3C3CC3)C2)C1	250	5.33	5.62	7.72
CCOCCN(C[C@@H](O)CN1CCCC2(CCN(c3ncnc(N)c3C3CC3)C2)C1)S(=O)(=O)c1c(C)cccc1C (mixture of isomers)	180	5.66	6.33	7.92
Nc1ncnc(N2CC[C@@]3(CCCN(C[C@H](O)CNS(=O)(=O)c4ccccc4Cl)C3)C2)c1C1CC1	920	5.08	5.72	8.05
Cc1cc(F)ccc1S(=O)(=O)NC[C@@H](O)CN1CCC[C@@]2(CCN(c3ncnc(N)c3C3CC3)C2)C1	970	5.11	5.66	8.10
Cc1noc(C)c1S(=O)(=O)NC[C@@H](O)CN1CCC[C@@]2(CCN(c3ncnc(N)c3C3CC3)C2)C1	630	5.72	6.31	8.52
CCOCCN(C[C@@H](O)CN1CCCC2(CCN(c3ncnc4[nH]cc(C)c34)C2)C1)S(=O)(=O)c1c(C)cccc1C (some centres undefined)	28	7.17	6.74	8.70
Cc1ccc(S(=O)(=O)NC[C@@H](O)CN2CCC[C@@]3(CCN(c4ncnc(N)c4C4CC4)C3)C2)c(C)c1	> 63	< 5.00	4.74	6.80
Nc1ncnc(N2CC[C@@]3(CCCN(C[C@H](O)CNS(=O)(=O)c4ccccc4F)C3)C2)c1C1CC1	> 120	< 5.00	4.85	7.09
Nc1ncnc(N2CC[C@@]3(CCCN(C[C@H](O)CNS(=O)(=O)c4ccccc4Br)C3)C2)c1C1CC1	550	5.03	5.70	7.77
Cc1cccc(C)c1S(=O)(=O)NC[C@@H](O)CN1CCC[C@@]2(CCN(c3ncnc(N)c3C3CC3)C2)C1	850	5.47	6.05	8.40
